Key:
[1] = In vitro phase I metabolism with mouse hepatic microsomes and NADPH; format: in vitro ADME; conditions: liver microsomal enzymes of C57BL/6 male mice
Description: Figure 2 PZ-DHA undergoes phase I metabolism in the presence of freshly prepared mouse liver microsomes. PZ-DHA (1.1 µM) was incubated with 100 mM NADPH in the presence of mouse liver microsome for 1 h at 37 °C. Metabolites from PZ-DHA (A) hydrolysis, (B) and (C) hydroxylation, and (D) epoxidation were identified.
Mouse hepatic microsomes were freshly isolated from the livers of male C57BL/6 mice, and the entire extraction procedure was carried out at 4 °C. Mouse livers were minced and homogenized in KCl/sucrose phosphate buffer (0.154 M KCl, 0.25 M sucrose in 50 mM potassium phosphate buffer (K2HPO4/KH2PO4) (PPB), pH 7.5). Cell/tissue debris was separated out by centrifuging homogenized livers at 12,000×g for 22 min at 4 °C. The supernatant was collected and centrifuged at 100,000×g for 70 min at 4 °C. The pellet was gently rinsed using 50 mM PPB and resuspended in glycerol/phosphate buffer (20% glycerol (v/v), 80% 0.1 M PPB pH 7.5). The protein concentration was determined using a Bradford assay (R^2 = 1.00), and microsomes were stored at − 80 °C.
Potential in vitro phase I and phase II metabolites of PZ-DHA were detected by incubating PZ-DHA in the presence of freshly-prepared mouse hepatic microsome preparations. Phase I metabolites were determined by incubating 1.1 µM PZ-DHA with 100 mM NADPH in the presence of mouse hepatic microsomes for 1 h at 37 °C. Phase II methylation, glucuronidation, and sulphation of PZ-DHA was determined by incubating 1.1 µM PZ-DHA with 1 mM SAM, 2 mM UDPGA, and 0.5 mM PAPS, respectively, in the presence of freshly prepared mouse hepatic microsome for 1 h at 37 °C (Supplementary information Tables S1–S4). To assess the efficiency of the metabolic process, controls (no PZ-DHA control, no mouse hepatic microsome control and no co-factor control) were incubated in parallel to the test. Reactions were terminated by adding a mixture of 4 mL ice-cold acetonitrile:acetone (80:20) containing 0.05 mg/mL quercetin as the internal standard. Proteins were precipitated by incubating the reaction mixture at 4 °C overnight and separated by centrifuging at 14,000 × g for 15 min at 4 °C. Supernatants were concentrated under nitrogen flush, filtered and PZ-DHA and/or PZ-DHA metabolites were identified using a UPLC-ESI–MS/MS system (Waters Limited, Mississauga, ON, Canada).
(§1) PZ-DHA and/or PZ-DHA metabolites in malignant/non-malignant epithelial cell lysates, in vitro microsome enzyme reaction mixtures, and mouse serum aliquots were determined using UPLC-ESI–MS/MS instrument (Waters Limited, Mississauga, ON, Canada). All mass spectroscopic analyses were performed using mass scan (full-scan, identification of unknowns) and single ion monitoring (SIM; quantification of PZ, DHA, PZ-DHA, and quercetin) modes of a Waters H-class UPLC separations module coupled with a Micromass Quattro micro API MS/MS system and MassLynx V4.0 control software. An Allure biphenyl column (100 mm × 2.1 mm, 1.8 μm, Restek Pure Chromatography, Bellefonte, PA, USA) and a flow rate of 0.3 mL/min were employed. ESI- mode with a capillary voltage of 3000 V and a nebulizer gas (N2) temperature of 375 °C were used. A volume of 2 µL sample was injected.

[2] = tested on: mammary carcinoma cells and mammary epithelial cells; test: Cellular uptake assay, all cell lines together; format: cell-based, human and mouse; conditions: 72 h, 20 μM
Description: Figure 1 Conjugation of PZ with DHA increases the cellular uptake and stability of PZ and DHA. The cells were treated with 20 μM of PZ, DHA or PZ-DHA and cultured for 72 h at 37 °C. Cells were harvested and washed thoroughly using cold PBS. Cells were lysed in cold acetone containing 0.05 mg/mL quercetin, and cell lysates were collected by centrifugation and analyzed by using UPLC-ESI-MS/MS. (A) mean % cellular uptake of PZ, DHA and PZ-DHA. (B) fold increase in intracellular PZ and DHA when conjugated. ANOVA multiple means statistical comparison method was performed and differences among means were compared using Tukey’s test; *p < 0.05. (MDA-MB-231 p = 0.008; MDA-MB-468 p = 0.01; 4T1 p = 0.02; MCF-7 p = 0.01; MCF-10A p = 0.0005).
Cells were seeded at a density of 3 × 10^5 cells (MDA-MB-231, MDA-MB-468, MCF-7, and MCF-10A) or 1 × 10^5 cells (4T1) /T-75 flask. The cells were cultured overnight to promote cell adhesion. Adherent cells were treated with a sub-cytotoxic concentration (20 μM) of PZ, DHA or PZ-DHA and cultured for 72 h at 37 °C. The supernatant was carefully removed, and cell monolayers were washed with cold PBS. Cells were harvested using TrypLE Express and washed thoroughly with cold PBS. The cell pellet was resuspended in 3 mL of cold acetone containing 0.05 mg/mL quercetin as the internal standard, and incubated overnight at 4 °C. Cell lysates were collected by centrifugation at 14,000×g for 15 min at 4 °C and samples were concentrated by evaporating acetone under a stream of nitrogen gas. Dry pellets were reconstituted in methanol and filtered. The sample was analyzed using a UPLC/ESI/MS system. The percentage cell uptake of the total dose was quantified using standard curves of PZ (R^2 = 0.99), DHA (R^2 = 0.98) or PZ-DHA (R^2 = 0.99) made in methanol.
as §1

[3] = tested on: 4T1 breast cancer cells; set-up: method as in PMID 31473253; conditions: intraperitoneal, 100 mg/kg every 2 days for 10 days; cited from earlier work
[4] = tested on: mammary carcinoma cells (MDA-MB-231, MDA-MB-468, 4T1, MCF-7) and MCF-10A; set-up: method as in PMID 27535497; conditions: cited from earlier work
[5] = tested on: mammary carcinoma cells, including MDA-MB-231 and 4T1; set-up: method as in PMID 31473253; conditions: 20 µM for PZ-DHA; cited from earlier work

CC/C=C\C/C=C\C/C=C\C/C=C\C/C=C\C/C=C\CCC(=O)OC[C@H]1O[C@@H](Oc2cc(O)cc(O)c2C(=O)CCc2ccc(O)cc2)[C@H](O)[C@@H](O)[C@@H]1O [PZ-DHA, phloridzin docosahexaenoate]
NADPH-dependent phase I bio-transformations identified [1]: hydrolysis, hydroxylation, and epoxidation | abundance in cells throughout the experimental period [2]: stable abundance | cellular uptake (as a % of the dose), in words ([2]; all cell lines): significantly higher than that of PZ or DHA | tumor growth and metastasis of 4T1 breast cancer cells [3]: inhibits tumor growth and metastasis | selective cytotoxicity, malignant versus non-malignant cells [4]: selectively kills mammary carcinoma cells | migration and invasion of mammary carcinoma cells [5]: significantly inhibits
